Laboratory results taken from PMC6522510 (Nature Communications, 2019).
Read-outs that look alike come from different tables or passages of the source. One block for each compound: values may come before it.

How the values were obtained:
CMK [1] = experiment: Secondary dose-response HTS, Cell Titer Glo; assay type: cell-based, human; conditions: CMK; for EC50: Homo sapiens
U937 [2] = experiment: Secondary dose-response HTS, Cell Titer Glo; assay type: cell-based, human; conditions: for EC50: Homo sapiens, U-937
MV4-11 [3] = experiment: Secondary dose-response HTS, Cell Titer Glo; assay type: cell-based, human; conditions: MV4-11; for EC50: Homo sapiens
[4] = system: MLLr primary AML blast samples; experiment: Ex vivo drug treatment of primary AML blasts on mesenchymal stromal cells; assay type: cell-based; conditions: Homo sapiens; primary blasts on MSC, 96 h, range over patient samples
CMS [5] = experiment: Secondary dose-response HTS, Cell Titer Glo; assay type: cell-based, human; conditions: for EC50: Homo sapiens
MOLM-13 [6] = experiment: Secondary dose-response HTS, Cell Titer Glo; assay type: cell-based, human; conditions: MOLM-13; for EC50: Homo sapiens
[7] = system: AMKL primary AML blast samples; experiment: Ex vivo drug treatment of primary AML blasts on mesenchymal stromal cells; assay type: cell-based; conditions: Homo sapiens; primary blasts on MSC, 96 h
[8] = system: FLT3-ITD+ primary AML blast samples
M07e [9] = experiment: Secondary dose-response HTS, Cell Titer Glo; assay type: cell-based, human; conditions: for EC50: Homo sapiens, M-07e
ML2 = experiment: Secondary dose-response HTS, Cell Titer Glo; assay type: cell-based, human; conditions: ML-2; for EC50: Homo sapiens
CHRF288-11 [10] = experiment: Secondary dose-response HTS, Cell Titer Glo; assay type: cell-based, human; conditions: for EC50: Homo sapiens
M07e [11] = experiment: cells; design: species or system AML cell lines (8); conditions: M-07e, 72 h, read-out: M07e
U937 [12] = experiment: cells; design: species or system AML cell lines (8); conditions: Homo sapiens, U-937, 72 h, read-out: U937
ML-2 = experiment: cells; design: species or system AML cell lines (8); conditions: Homo sapiens, ML-2, 72 h, read-out: ML-2
CHRF288-11 [13] = experiment: cells; design: species or system AML cell lines (8); conditions: 72 h, read-out: CHRF288-11
MOLM-13 [14] = experiment: cells; design: species or system AML cell lines (8); Secondary HTS, 10-point dose-response in triplicate, Cell Titer Glo viability, four-parameter fit EC50; conditions: Homo sapiens; 72 h cell viability; read-out: MOLM-13
CMK [15] = experiment: cells; design: species or system AML cell lines (8); conditions: Homo sapiens, 72 h, read-out: CMK
CMS [16] = experiment: cells; design: species or system AML cell lines (8); conditions: 72 h, read-out: CMS
MV4-11 [17] = experiment: cells; design: species or system AML cell lines (8); conditions: Homo sapiens, MV4-11, 72 h, read-out: MV4-11
CHRF288-11 [18] = experiment: cells; design: species or system AML cell lines (8); Secondary HTS, 10-point dose-response in triplicate, Cell Titer Glo viability, four-parameter fit EC50; conditions: 72 h, read-out: CHRF288-11
CMS [19] = experiment: cells; design: species or system AML cell lines (8); Secondary HTS, 10-point dose-response in triplicate, Cell Titer Glo viability, four-parameter fit EC50; conditions: 72 h, read-out: CMS
M07e [20] = experiment: cells; design: species or system AML cell lines (8); Secondary HTS, 10-point dose-response in triplicate, Cell Titer Glo viability, four-parameter fit EC50; conditions: M-07e, 72 h, read-out: M07e
U937 [21] = experiment: cells; design: species or system AML cell lines (8); Secondary HTS, 10-point dose-response in triplicate, Cell Titer Glo viability, four-parameter fit EC50; conditions: Homo sapiens, U-937, 72 h, read-out: U937
MV4-11 [22] = experiment: cells; design: species or system AML cell lines (8); Secondary HTS, 10-point dose-response in triplicate, Cell Titer Glo viability, four-parameter fit EC50; conditions: Homo sapiens, MV4-11, 72 h, read-out: MV4-11
CMK [23] = experiment: cells; design: species or system AML cell lines (8); Secondary HTS, 10-point dose-response in triplicate, Cell Titer Glo viability, four-parameter fit EC50; conditions: Homo sapiens, CMK, 72 h, read-out: CMK
MOLM-13 [24] = experiment: cells; design: species or system AML cell lines (8); Secondary HTS, 10-point dose-response in triplicate, Cell Titer Glo viability, four-parameter fit EC50; conditions: Homo sapiens, MOLM-13, 72 h, read-out: MOLM-13
[25] = system: panel of 8 AML cell lines; experiment: Secondary dose-response HTS, whole panel; assay type: cell-based, human; conditions: secondary HTS (Supplementary Data 2)
[26] = secondary high-throughput screen, read-out: average effective concentration, CMK
[27] = secondary high-throughput screen, U937, read-out: average effective concentration, U937
[28] = secondary high-throughput screen, read-out: average effective concentration, MV4-11
[29] = secondary high-throughput screen, read-out: average effective concentration, MOLM-13
[30] = secondary high-throughput screen, read-out: average effective concentration, ML-2
[31] = secondary high-throughput screen
[32] = secondary high-throughput screen, U937
[33] = secondary high-throughput screen, CHRF288-11

SMILES: C/C=C1\NC(=O)[C@H]2CSSCC/C=C/[C@H](CC(=O)N[C@H](C(C)C)C(=O)N2)OC(=O)[C@H](C(C)C)NC1=O [Romidepsin, reference compound]
EC50 (CMK [1]; secondary HTS, 72 h, average of triplicate, read-out: EC50 CMK): 10 nM | EC50 (CMK [1]; [26]): 8 nM | EC50 (U937 [2]; secondary HTS, 72 h, average of triplicate, read-out: EC50 U937): 3 nM | EC50 (U937 [2]; [27]): 3.2 nM | EC50 (MV4-11 [3]; secondary HTS, 72 h, average of triplicate, read-out: EC50 MV4-11): 1 nM | EC50 (MV4-11 [3]; [28]): 0.6 nM | IC50 [4]: 1.6 to 6 nM | EC50 (CMS [5]; secondary HTS, 72 h, average of triplicate, read-out: EC50 CMS): 1 nM | EC50 (MOLM-13 [6]; secondary HTS, 72 h, average of triplicate, read-out: EC50 MOLM-13): 1 nM | EC50 (MOLM-13 [6]; [29]): 0.67 nM | IC50 [7]: 5 nM | IC50 [8]: 3.8 to 13 nM | EC50 (M07e [9]; secondary HTS, 72 h, average of triplicate, read-out: EC50 M07e): 2 nM | EC50 (M07e [9]; secondary high-throughput screen, […], read-out: average effective concentration, M07e): 1.7 nM | EC50 (ML2; secondary HTS, 72 h, average of triplicate, read-out: EC50 ML2): 4 nM | EC50 (ML2; [30]): 3.8 nM | EC50 (CHRF288-11 [10]; HTS, secondary high-throughput screen, CHRF288-11, read-out: average effective concentration, CHRF288-11): 6.5 nM | EC50 (CHRF288-11 [10]; secondary HTS, 72 h, average of triplicate, read-out: EC50 CHRF288-11): 10 nM

SMILES: Cn1c(COP(=O)(NCCBr)NCCBr)cnc1[N+](=O)[O-] [TH-302]
EC50 (M07e [11]): > 10000 nM | average effective concentration, CMK (CMK [1]; [31]): Inactive | EC50 (U937 [12]): > 10000 nM | EC50 (ML-2): > 10000 nM | average effective concentration, U937 (U937 [2]; [32]): Inactive | average effective concentration, MV4-11 (MV4-11 [3]; [31]): Inactive | EC50 (CHRF288-11 [13]): > 10000 nM | average effective concentration, CMS (CMS [5]; secondary high-throughput screen, CMS): Inactive | EC50 (MOLM-13 [14]): > 10000 nM | average effective concentration, MOLM-13 (MOLM-13 [6]; [31]): Inactive | EC50 (CMK [15]): > 10000 nM | average effective concentration, M07e (M07e [9]; secondary high-throughput screen, […]): Inactive | average effective concentration, ML-2 (ML2; [31]): Inactive | EC50 (CMS [16]): > 10000 nM | EC50 (MV4-11 [17]): > 10000 nM | average effective concentration, CHRF288-11 (CHRF288-11 [10]; [33]): Inactive

IC50 [8]: 1980 to 2460 nM
SMILES: Cn1ncnc1[C@H]1c2n[nH]c(=O)c3cc(F)cc(c23)N[C@@H]1c1ccc(F)cc1 [Talazoparib]

IC50 [4]: 1.6 to 1470 nM | EC50 (U937 [21]): > 10000 nM | IC50 [8]: 130 to 5310 nM | EC50 (MV4-11 [22]): > 10000 nM | EC50 (MOLM-13 [24]): > 10000 nM
SMILES: CC(=O)Nc1cccc(-n2c(=O)n(C3CC3)c(=O)c3c(Nc4ccc(I)cc4F)n(C)c(=O)c(C)c32)c1 [Trametinib]
EC50 (CHRF288-11 [18]): > 10000 nM | EC50 (CMS [19]): > 10000 nM | EC50 (M07e [20]): > 10000 nM | EC50 (ML2; [30]): 1 nM | EC50 (CMK [23]): > 10000 nM

EC50 (MV4-11 [3]; [28]): 1 nM | IC50 [4]: 46 to 1050 nM | EC50 (MOLM-13 [6]; [29]): > 10000 nM | IC50 [8]: 3.2 to 16 nM
SMILES: CC1(C)CCC(CN2CCN(c3ccc(C(=O)NS(=O)(=O)c4ccc(NCC5CCOCC5)c([N+](=O)[O-])c4)c(Oc4cnc5[nH]ccc5c4)c3)CC2)=C(c2ccc(Cl)cc2)C1 [Venetoclax, reference compound]
average effective concentration, CMK (CMK [1]; [31]): Inactive | average effective concentration, U937 (U937 [2]; [32]): Inactive | EC50 (CMS [5]; HTS, read-out: average effective concentration, CMS): > 10000 nM | average effective concentration, M07e (M07e [9]; secondary high-throughput screen, M07e): Inactive | average effective concentration, ML-2 (ML2; [31]): Inactive | average effective concentration, CHRF288-11 (CHRF288-11 [10]; [33]): Inactive

EC50 (MV4-11 [3]; [28]): 790 nM | IC50 [8]: 304 to 2890 nM
SMILES: O=C(CCCCCCC(=O)Nc1ccccc1)NO [Vorinostat, reference compound]

EC50 (U937 [2]; [27]): 1 nM | EC50 (MV4-11 [3]; [28]): 1 nM | EC50 (MOLM-13 [6]; [29]): 7 nM
SMILES: CCN(CCCOc1ccc2c(Nc3cc(CC(=O)Nc4cccc(F)c4)n[nH]3)ncnc2c1)CCOP(=O)(O)O [barasertib, reference compound]
EC50 (CMK [1]; [26]): 35 nM | EC50 (ML2; [30]): 1 nM | active cell lines out of 8 in HTS [25]: 3/8
